In patent US20140088102A1, “(ALPHA-SUBSTITUTED CYCLOALKYLAMINO AND HETEROCYCLYLAMINO) PYRIMIDINYL AND 1,3,5-TRIAZINYL BENZIMIDAZOLES, PHARMACEUTICAL COMPOSITIONS THEREOF, AND THEIR USE IN TREATING PROLIFERATIVE DISEASES” (MEI PHARMA, INC., priority 2011, published 2014):

Columns and labels:
Format in all cases: biochemical
p110δ = biological target: T1, p110δ (Homo sapiens, UniProt O00329); test: Luciferase-based luminescence assay (Kinase GLO), PI3K delta; conditions: for IC50: 6.86 nM enzyme, 50 μM PIP2, 25 μM ATP, 2 hours; for α/δ ratio: ratio of IC50 against PI3Kα over IC50 against PI3Kδ
T1 construct: purchased Millipore, Billerica, Mass., USA
Protocol: (§1) PI3K catalyzes the conversion of phosphatidylinositol-4,5-bisphosphate (PIP2) and ATP to phosphatidylinositol-3,4,5-trisphosphate (PIP3) and ADP. PI3K enzymatic activity was determined by measuring the amount of ATP consumed following the kinase reaction using a luciferase-based luminescence assay (Kinase GLO®, Promega Corp., Madison, Wis., USA) in a reaction buffer. The reaction buffer contained 50 mM HEPES, pH 7.5, 3 mM MgCl2, 1 mM EGTA, 100 mM NaCl, 0.03% CHAPS, and 2 mM DTT. Compounds for testing were dissolved and serially diluted in 100% DMSO (total of 10 concentrations), and then diluted 1:25 in the reaction buffer. PI3K enzyme solutions were prepared by diluting PI3K alpha (Invitrogen Corp., Carlsbad, Calif., USA) or PI3K delta (Millipore, Billerica, Mass., USA) in the reaction buffer to 4× the final assay concentration. The final concentrations of enzymes were 1.65 nM and 6.86 nM for PI3K alpha and PI3K delta, respectively. A substrate solution was prepared by mixing PIP2 and ATP in reaction buffer at 2× the final assay concentration. The final concentrations were 50 μM and 25 μM for PIP2 and ATP, respectively. To individual wells of white low volume 384-well assay plates were added 2.5 μl each of the compound and kinase mixtures, followed by shaking. The reactions were started by adding 5 μl of substrate mixture per well and shaking. The assay plates were covered and reactions were allowed to proceed for 1 hour (PI3K alpha) or 2 hours (PI3K delta), after which 10 μl of Kinase GLO® reagent was added. The plates were briefly centrifuged and incubated for 10 minutes, after which luminescence was measured using a FlexStation plate reader (Molecular Devices, Sunnyvale, Calif., USA). IC50 values were determined by curve fitting using Graphpad Prism software (Graphpad Software, La Jolla, Calif., USA).

p110α = biological target: T2, p110α (Homo sapiens, UniProt P42336); test: Luciferase-based luminescence assay (Kinase GLO), PI3K alpha; conditions: 1.65 nM enzyme, 50 μM PIP2, 25 μM ATP, 1 hour
T2 construct: purchased Invitrogen Corp., Carlsbad, Calif., USA
Protocol: as §1

p110β = p110β (Homo sapiens, UniProt P42338); test: Luciferase-based luminescence assay, p110β
mTOR = mTOR (Homo sapiens, UniProt P42345); test: Luciferase-based luminescence assay, mTOR
p110γ = p110γ (Homo sapiens, UniProt P48736); test: Luciferase-based luminescence assay, p110γ
p110γ, sequence (P48736 whole entry, species assumed): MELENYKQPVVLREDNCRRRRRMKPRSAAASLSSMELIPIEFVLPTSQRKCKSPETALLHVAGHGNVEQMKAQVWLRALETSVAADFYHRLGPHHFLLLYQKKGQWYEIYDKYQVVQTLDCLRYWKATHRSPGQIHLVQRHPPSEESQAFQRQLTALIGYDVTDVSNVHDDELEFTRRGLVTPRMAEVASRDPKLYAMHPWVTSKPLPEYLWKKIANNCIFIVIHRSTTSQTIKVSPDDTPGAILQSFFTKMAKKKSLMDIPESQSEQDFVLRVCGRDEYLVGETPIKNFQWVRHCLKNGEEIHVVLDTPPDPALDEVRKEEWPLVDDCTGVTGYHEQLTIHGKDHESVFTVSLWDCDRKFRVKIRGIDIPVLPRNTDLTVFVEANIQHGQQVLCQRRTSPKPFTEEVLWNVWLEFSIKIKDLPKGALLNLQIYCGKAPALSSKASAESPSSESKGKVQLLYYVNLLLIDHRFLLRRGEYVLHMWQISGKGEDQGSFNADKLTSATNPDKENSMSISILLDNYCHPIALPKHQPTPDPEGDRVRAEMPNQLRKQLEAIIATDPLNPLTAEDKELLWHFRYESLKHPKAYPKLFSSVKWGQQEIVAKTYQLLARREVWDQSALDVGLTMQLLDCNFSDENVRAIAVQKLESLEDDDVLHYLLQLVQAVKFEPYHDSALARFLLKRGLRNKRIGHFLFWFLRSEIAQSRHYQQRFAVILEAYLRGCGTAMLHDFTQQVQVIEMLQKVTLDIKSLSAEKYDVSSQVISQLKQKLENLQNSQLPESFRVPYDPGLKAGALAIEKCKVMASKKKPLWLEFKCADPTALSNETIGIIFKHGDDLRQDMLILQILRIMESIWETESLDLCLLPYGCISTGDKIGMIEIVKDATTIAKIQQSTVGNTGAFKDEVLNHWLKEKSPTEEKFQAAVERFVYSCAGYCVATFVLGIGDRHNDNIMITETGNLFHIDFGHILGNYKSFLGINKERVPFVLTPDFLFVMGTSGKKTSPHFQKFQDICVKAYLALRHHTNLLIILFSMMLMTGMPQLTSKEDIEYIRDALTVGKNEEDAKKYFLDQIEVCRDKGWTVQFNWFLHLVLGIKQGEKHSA

T1 sequence (O00329 whole entry): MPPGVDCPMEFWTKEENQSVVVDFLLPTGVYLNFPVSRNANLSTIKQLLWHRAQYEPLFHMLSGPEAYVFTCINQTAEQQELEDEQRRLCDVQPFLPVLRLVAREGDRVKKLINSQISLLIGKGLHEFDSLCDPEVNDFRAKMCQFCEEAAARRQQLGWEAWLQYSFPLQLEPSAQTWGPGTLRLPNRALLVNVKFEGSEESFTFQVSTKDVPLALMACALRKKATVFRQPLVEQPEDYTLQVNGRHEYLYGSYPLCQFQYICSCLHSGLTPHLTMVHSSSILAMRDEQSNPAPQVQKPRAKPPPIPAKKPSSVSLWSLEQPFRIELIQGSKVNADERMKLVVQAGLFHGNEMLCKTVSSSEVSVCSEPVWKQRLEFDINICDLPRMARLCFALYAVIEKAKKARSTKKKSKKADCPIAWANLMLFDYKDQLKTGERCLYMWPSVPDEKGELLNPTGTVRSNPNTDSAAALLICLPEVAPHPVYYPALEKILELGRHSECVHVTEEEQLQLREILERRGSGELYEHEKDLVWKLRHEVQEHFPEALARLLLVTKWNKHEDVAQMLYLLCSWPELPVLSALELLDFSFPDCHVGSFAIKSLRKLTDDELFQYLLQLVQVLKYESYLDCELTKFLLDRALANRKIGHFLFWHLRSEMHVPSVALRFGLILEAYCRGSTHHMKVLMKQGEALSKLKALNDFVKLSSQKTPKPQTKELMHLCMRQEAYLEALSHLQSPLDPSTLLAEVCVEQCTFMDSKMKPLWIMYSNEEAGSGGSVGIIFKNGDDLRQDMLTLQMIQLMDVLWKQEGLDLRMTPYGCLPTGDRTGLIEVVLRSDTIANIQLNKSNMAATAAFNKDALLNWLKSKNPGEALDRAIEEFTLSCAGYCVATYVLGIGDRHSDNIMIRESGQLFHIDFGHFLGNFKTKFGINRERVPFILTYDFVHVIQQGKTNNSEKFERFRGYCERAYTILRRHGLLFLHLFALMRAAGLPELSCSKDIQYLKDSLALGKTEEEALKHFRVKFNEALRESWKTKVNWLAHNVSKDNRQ
T1 sequence (P27986 whole entry partner): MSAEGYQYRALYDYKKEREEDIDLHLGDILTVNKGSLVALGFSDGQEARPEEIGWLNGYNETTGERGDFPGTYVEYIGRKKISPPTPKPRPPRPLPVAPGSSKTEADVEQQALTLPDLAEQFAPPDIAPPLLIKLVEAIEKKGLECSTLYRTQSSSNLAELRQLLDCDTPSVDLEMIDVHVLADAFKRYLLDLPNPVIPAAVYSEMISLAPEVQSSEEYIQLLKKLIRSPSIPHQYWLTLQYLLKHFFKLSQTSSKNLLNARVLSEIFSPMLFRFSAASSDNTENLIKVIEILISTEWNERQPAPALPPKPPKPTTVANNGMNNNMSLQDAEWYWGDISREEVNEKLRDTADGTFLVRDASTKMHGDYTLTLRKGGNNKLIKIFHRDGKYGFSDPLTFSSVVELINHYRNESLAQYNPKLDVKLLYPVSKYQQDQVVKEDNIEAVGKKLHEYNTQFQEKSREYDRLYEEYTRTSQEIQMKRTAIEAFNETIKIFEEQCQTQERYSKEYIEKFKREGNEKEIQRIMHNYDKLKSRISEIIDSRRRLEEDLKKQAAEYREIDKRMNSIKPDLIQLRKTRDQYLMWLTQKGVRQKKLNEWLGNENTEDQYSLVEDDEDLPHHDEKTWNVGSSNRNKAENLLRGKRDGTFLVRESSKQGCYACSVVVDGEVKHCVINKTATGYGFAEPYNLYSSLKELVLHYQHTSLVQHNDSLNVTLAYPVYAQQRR
p110β, sequence (P42338 whole entry, species assumed): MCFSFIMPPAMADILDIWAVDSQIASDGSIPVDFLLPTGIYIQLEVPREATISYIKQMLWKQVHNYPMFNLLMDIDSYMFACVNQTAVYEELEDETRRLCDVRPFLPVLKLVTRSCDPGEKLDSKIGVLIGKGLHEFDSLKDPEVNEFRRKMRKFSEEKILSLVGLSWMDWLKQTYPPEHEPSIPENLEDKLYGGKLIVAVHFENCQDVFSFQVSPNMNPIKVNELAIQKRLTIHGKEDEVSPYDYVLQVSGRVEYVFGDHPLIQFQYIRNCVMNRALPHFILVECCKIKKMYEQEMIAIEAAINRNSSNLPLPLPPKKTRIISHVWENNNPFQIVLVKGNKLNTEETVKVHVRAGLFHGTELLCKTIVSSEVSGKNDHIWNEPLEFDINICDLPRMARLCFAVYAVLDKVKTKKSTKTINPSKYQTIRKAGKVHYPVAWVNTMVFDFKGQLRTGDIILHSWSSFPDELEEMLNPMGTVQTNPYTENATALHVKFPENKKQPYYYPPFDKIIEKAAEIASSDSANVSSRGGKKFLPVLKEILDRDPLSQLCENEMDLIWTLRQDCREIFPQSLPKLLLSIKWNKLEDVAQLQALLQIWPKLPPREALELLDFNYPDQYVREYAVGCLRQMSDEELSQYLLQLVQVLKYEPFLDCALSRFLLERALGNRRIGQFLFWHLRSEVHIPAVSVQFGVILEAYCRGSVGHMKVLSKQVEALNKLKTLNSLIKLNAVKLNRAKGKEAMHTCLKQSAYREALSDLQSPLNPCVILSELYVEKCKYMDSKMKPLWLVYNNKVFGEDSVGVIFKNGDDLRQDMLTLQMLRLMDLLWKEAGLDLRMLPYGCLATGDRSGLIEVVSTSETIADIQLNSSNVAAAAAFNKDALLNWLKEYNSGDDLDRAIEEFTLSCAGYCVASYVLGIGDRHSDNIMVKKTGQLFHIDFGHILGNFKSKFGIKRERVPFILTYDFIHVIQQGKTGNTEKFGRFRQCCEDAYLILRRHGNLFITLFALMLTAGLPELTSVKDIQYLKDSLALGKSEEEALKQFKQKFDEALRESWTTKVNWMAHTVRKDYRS
p110β, sequence (P27986 whole entry partner, species assumed): as the sequence (P27986 whole entry partner) above
T2 sequence (P42336 whole entry): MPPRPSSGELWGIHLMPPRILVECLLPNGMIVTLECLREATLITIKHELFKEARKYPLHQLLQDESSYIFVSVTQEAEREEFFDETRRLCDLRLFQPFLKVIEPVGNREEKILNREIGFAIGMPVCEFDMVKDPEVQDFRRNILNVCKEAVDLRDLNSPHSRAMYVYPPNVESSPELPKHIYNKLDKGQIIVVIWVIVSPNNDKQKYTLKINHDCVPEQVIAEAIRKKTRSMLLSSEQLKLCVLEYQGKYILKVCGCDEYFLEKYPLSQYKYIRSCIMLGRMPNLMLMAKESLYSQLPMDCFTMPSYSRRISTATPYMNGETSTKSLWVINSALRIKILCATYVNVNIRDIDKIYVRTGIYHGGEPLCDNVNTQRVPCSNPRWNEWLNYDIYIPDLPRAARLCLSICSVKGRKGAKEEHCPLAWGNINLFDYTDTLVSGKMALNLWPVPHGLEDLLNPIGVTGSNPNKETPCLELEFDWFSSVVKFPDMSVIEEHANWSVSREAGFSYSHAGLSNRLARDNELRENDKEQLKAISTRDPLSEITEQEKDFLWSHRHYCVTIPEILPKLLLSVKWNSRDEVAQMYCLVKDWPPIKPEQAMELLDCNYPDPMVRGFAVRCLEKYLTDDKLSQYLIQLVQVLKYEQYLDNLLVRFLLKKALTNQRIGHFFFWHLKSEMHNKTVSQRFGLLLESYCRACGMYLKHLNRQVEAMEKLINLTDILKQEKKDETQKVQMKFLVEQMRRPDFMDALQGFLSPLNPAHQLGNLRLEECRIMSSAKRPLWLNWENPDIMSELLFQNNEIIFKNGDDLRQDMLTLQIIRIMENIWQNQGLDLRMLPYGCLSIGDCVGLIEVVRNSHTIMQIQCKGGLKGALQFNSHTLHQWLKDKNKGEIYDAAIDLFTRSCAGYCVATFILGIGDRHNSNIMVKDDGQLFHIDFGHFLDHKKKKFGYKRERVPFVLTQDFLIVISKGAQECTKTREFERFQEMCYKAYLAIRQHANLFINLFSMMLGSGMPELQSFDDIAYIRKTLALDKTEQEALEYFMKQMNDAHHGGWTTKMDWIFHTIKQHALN
T2 sequence (P27986 whole entry partner): as the sequence (P27986 whole entry partner) above

Row | SMILES | IC50 (p110δ) [nM] | IC50 (p110α) [nM] | IC50 (p110β) [nM] | IC50 (mTOR) [nM] | IC50 (p110γ) [nM] | α/δ ratio (p110δ)
1 | FC(F)c1nc2ccccc2n1-c1nc(NCc2ccccc2)nc(N2CCOCC2)n1 [Ref. 1, N-benzyl-4-(2-(difluoromethyl)-1H-benzo[d]imidazol-1-yl)-6-morpholino-1,3,5-triazin-2-amine, reference compound] | 100 to 200 | 100 to 200 |  |  |  | D′ (D′ represents a ratio of no greater than 2)
2 | FC(F)c1nc2ccccc2n1-c1nc(NC2(Cc3ccccc3Cl)CC2)nc(N2CCOCC2)n1 [Compound A10, N-(1-(2-chlorobenzyl)cyclopropyl)-4-(2-(difluoromethyl)-1H-benzo[d]imidazol-1-yl)-6-morpholino-1,3,5-triazin-2-amine] | 200 to 500 | > 500 | > 500 | > 500 | > 500 | A′ (A′ represents a ratio of greater than 8)
3 | Cc1ccccc1CC1(Nc2nc(N3CCOCC3)nc(-n3c(C(F)F)nc4ccccc43)n2)CC1 [Compound A8, 4-(2-(difluoromethyl)-1H-benzo[d]imidazol-1-yl)-N-(1-(2-methylbenzyl)cyclopropyl)-6-morpholino-1,3,5-triazin-2-amine] | 100 to 200 | > 500 | > 500 | > 500 | > 500 | B′ (B′ represents a ratio of no less than 4 but no greater than 8)
4 | FC(F)c1nc2ccccc2n1-c1nc(NC2(Cc3ccc(Br)cc3)CCCCC2)nc(N2CCOCC2)n1 [Compound A6, N-(1-(4-bromobenzyl)cyclohexyl)-4-(2-(difluoromethyl)-1H-benzo[d]imidazol-1-yl)-6-morpholino-1,3,5-triazin-2-amine] | > 500 | > 500 | > 500 | > 500 | > 500 | B′ (B′ represents a ratio of no less than 4 but no greater than 8)
5 | FC(F)c1nc2ccccc2n1-c1nc(NC2(c3ccccc3)CCCC2)nc(N2CCOCC2)n1 [Compound A3, 4-(2-(difluoromethyl)-1H-benzo[d]imidazol-1-yl)-6-morpholino-N-(1-phenylcyclopentyl)-1,3,5-triazin-2-amine] | > 500 | > 500 |  |  |  | A′ (A′ represents a ratio of greater than 8)
6 | FC(F)c1nc2ccccc2n1-c1nc(NC2(c3ccccc3)CCCCC2)nc(N2CCOCC2)n1 [Compound A4, 4-(2-(difluoromethyl)-1H-benzo[d]imidazol-1-yl)-6-morpholino-N-(1-phenylcyclohexyl)-1,3,5-triazin-2-amine] | 200 to 500 | > 500 |  |  |  | A′ (A′ represents a ratio of greater than 8)

Continued, in another order:

Row | IC50 (p110δ) [nM] | IC50 (p110α) [nM] | IC50 (p110β) [nM] | IC50 (mTOR) [nM] | IC50 (p110γ) [nM] | SMILES | α/δ ratio (p110δ)
7 | ≤ 100 | > 500 | > 500 | > 500 | > 500 | FC(F)c1nc2ccccc2n1-c1nc(NC2(Cc3ccccc3)CC2)nc(N2CCOCC2)n1 [Compound A5, N-(1-benzylcyclopropyl)-4-(2-(difluoromethyl)-1H-benzo[d]imidazol-1-yl)-6-morpholino-1,3,5-triazin-2-amine] | A′ (A′ represents a ratio of greater than 8)
8 | ≤ 100 | > 500 | ≤ 100 | > 500 | 200 to 500 | FC(F)c1nc2ccccc2n1-c1nc(NC2(Cc3ccccc3)CCC2)nc(N2CCOCC2)n1 [Compound A11, 4-(2-(difluoromethyl)-1H-benzo[d]imidazol-1-yl)-N-(1-benzylcyclobutyl)-6-morpholino-1,3,5-triazin-2-amine] | A′ (A′ represents a ratio of greater than 8)
9 | ≤ 100 | > 500 | 100 to 200 | > 500 | 200 to 500 | FC(F)c1nc2ccccc2n1-c1nc(NC2(Cc3ccccc3)CCCC2)nc(N2CCOCC2)n1 [Compound A7, N-(1-benzylcyclopentyl)-4-(2-(difluoromethyl)-1H-benzo[d]imidazol-1-yl)-6-morpholino-1,3,5-triazin-2-amine] | A′ (A′ represents a ratio of greater than 8)
10 | ≤ 100 | 200 to 500 |  |  |  | FC(F)c1nc2ccccc2n1-c1nc(NC2(c3ccccc3)CC2)nc(N2CCOCC2)n1 [Compound A1, 4-(2-(difluoromethyl)-1H-benzo[d]imidazol-1-yl)-6-morpholino-N-(1-phenylcyclopropyl)-1,3,5-triazin-2-amine] | B′ (B′ represents a ratio of no less than 4 but no greater than 8)
